Laboratory results: US9475816B2, “Substituted-1,4-dihydropyrazolo[4,3-b]indoles” (TAKEDA PHARMACEUTICAL COMPANY LIMITED, priority 2012, dated 2016)

Columns and labels:
human MetAP2 enzyme [1] = molecular target: T1, human MetAP2 enzyme (Homo sapiens, UniProt P50579); assay: MetAP2 enzyme assay, MetAP2 enzyme complexed with cobalt ions; conditions: MetAP2 Co pIC50, 10 μM CoCl2; -log(IC50), IC50 molar
Method: (§1) DNA encoding the full-length sequence of human MetAP2 enzyme is amplified by PCR and cloned into a pFastBac expression vector (Invitrogen). Recombinant baculovirus incorporating the MetAP2 construct is generated by transposition using the Bac-to-Bac system (Invitrogen). The expression of recombinant protein is carried out by infection of Spodoptera frugiperda Sf9 cells (Invitrogen) in 5L Wave Bioreactors (Wave Biotech). Recombinant protein is isolated from cellular extracts by binding to an SP Hitrap Fast Flow or SP Sepharose (Sigma) column, and the protein is eluted using a NaCl gradient. Partially purified extracts of MetAP2 are further purified by an AKTA FPLC over a Superdex-200 column (GE). The purity of MetAP2 protein is determined on denaturing SDS-PAGE gel.
(§2) The results for each well are expressed as percent inhibition and calculated using the equation:

human MetAP2 enzyme [2] = molecular target: T1, human MetAP2 enzyme; assay: MetAP2 enzyme assay, MetAP2 enzyme complexed with manganese ions; conditions: MetAP2 Mn pIC50, 10 μM MnCl2; -log(IC50), IC50 molar
Method: as §1, §2

T1 sequence (P50579 whole entry): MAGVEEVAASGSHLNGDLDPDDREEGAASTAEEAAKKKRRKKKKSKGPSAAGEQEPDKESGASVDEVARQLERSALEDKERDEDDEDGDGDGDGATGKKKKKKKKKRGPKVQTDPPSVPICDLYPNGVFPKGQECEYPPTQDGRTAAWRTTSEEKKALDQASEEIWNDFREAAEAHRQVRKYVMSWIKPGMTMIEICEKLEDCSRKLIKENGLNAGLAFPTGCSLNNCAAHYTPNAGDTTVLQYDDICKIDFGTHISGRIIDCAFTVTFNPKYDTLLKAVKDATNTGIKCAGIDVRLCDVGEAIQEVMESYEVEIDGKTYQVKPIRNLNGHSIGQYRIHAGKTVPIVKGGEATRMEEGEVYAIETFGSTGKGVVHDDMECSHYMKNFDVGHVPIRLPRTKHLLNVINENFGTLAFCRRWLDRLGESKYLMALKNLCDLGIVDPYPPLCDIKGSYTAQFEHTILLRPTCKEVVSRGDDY

Row | Compound | IC50 (human MetAP2 enzyme [1]) | IC50 (human MetAP2 enzyme [2])
1 | Cc1nc(C(=O)NC2(CO)CC2)ccc1-n1c2ccc(F)cc2c2[nH]ncc21 [Example 100, 5-(7-Fluoropyrazolo[4,3-b]indol-4(1H)-yl)-N-(1-(hydroxymethyl)cyclopropyl)-6-methylpicolinamide] | 12.6 nM | 12.6 nM
2 | Nc1ncc(C(=O)O)cc1-n1c2ccc(F)cc2c2[nH]ncc21 [Example 18, 6-Amino-5-(7-fluoropyrazolo[4,3-b]indol-4(1H)-yl)nicotinic acid] | 100 nM | 63.1 nM
3 | Cc1nc(N2CCC(O)CC2)ncc1-n1c2ccc(F)cc2c2[nH]ncc21 [Example 78, 1-(5-(7-Fluoropyrazolo[4,3-b]indol-4(1H)-yl)-4-methylpyrimidin-2-yl)piperidin-4-ol] | 15.8 nM | 10 nM
4 | Cc1nc(N2CCNC(=O)C2)ncc1-n1c2ccc(F)cc2c2[nH]ncc21 [Example 44, 4-(5-(7-Fluoropyrazolo[4,3-b]indol-4(1H)-yl)-4-methylpyrimidin-2-yl)piperazin-2-one] | 7.94 nM | 10 nM
5 | O=C(C1CC1)n1c2ccc(F)cc2c2[nH]ncc21 [Example 99, Cyclopropyl(7-fluoropyrazolo[4,3-b]indol-4(1H)-yl)methanone] | 794 nM | 316 nM
6 | Cc1[nH]c(=O)ccc1-n1c2ccc(F)cc2c2[nH]ncc21 [Example 40, 5-(7-Fluoropyrazolo[4,3-b]indol-4(1H)-yl)-6-methylpyridin-2(1H)-one] | 15.8 nM | 15.8 nM
7 | Cc1nc(N2CC[C@H](C(=O)NCCO)C2)ncc1-n1c2ccc(F)cc2c2[nH]ncc21 [Example 103, (3S)-1-(5-(7-Fluoropyrazolo[4,3-b]indol-4(1H)-yl)-4-methylpyrimidin-2-yl)-N-(2-hydroxyethyl)pyrrolidine-3-carboxamide] | 6.31 nM | 10 nM
8 | Cc1nc(N2CC[C@H](O)C2)ccc1-n1c2ccc(F)cc2c2[nH]ncc21 [Example 27, (3S)-1-(5-(7-Fluoropyrazolo[4,3-b]indol-4(1H)-yl)-6-methylpyridin-2-yl)pyrrolidin-3-ol] | 6.31 nM | 3.98 nM
9 | Cc1nc(N[C@H](C)CO)ncc1-n1c2ccc(F)cc2c2[nH]ncc21 [Example 75, (2R)-2-((5-(7-Fluoropyrazolo[4,3-b]indol-4(1H)-yl)-4-methylpyrimidin-2-yl)amino)propan-1-ol] | 7.94 nM | 5.01 nM
10 | Cc1nc(N2CC[C@@H](N(C)C)C2)ncc1-n1c2ccc(F)cc2c2[nH]ncc21 [Example 35, (3R)-1-(5-(7-Fluoropyrazolo[4,3-b]indol-4(1H)-yl)-4-methylpyrimidin-2-yl)-N,N-dimethylpyrrolidin-3-amine] | 39.8 nM | 79.4 nM
11 | Cc1cc(C(=O)N2CCOCC2)ncc1-n1c2ccc(F)cc2c2[nH]ncc21 [Example 106, (5-(7-Fluoropyrazolo[4,3-b]indol-4(1H)-yl)-4-methylpyridin-2-yl)(morpholino)methanone] | 100 nM | 100 nM
12 | Cc1nc(C(=O)N2CC(C#N)C2)ccc1-n1c2ccc(F)cc2c2[nH]ncc21 [Example 125, 1-(5-(7-Fluoropyrazolo[4,3-b]indol-4(1H)-yl)-6-methylpicolinoyl)azetidine-3-carbonitrile] | 12.6 nM | 10 nM
13 | Cc1nc(N2C[C@H]3C[C@H]3[C@H]2C(N)=O)ncc1-n1c2ccc(F)cc2c2[nH]ncc21 [Example 136, (1R,2S,5S)-3-(5-(7-Fluoropyrazolo[4,3-b]indol-4(1H)-yl)-4-methylpyrimidin-2-yl)-3-azabicyclo[3.1.0]hexane-2-carboxamide] | 5.01 nM | 5.01 nM
14 | Cc1nc2c(cc1-n1c3ccc(F)cc3c3[nH]ncc31)ncn2C[C@@H](O)CO [Example 90, (2R)-3-(6-(7-Fluoropyrazolo[4,3-b]indol-4(1H)-yl)-5-methyl-3H-imidazo[4,5-b]pyridin-3-yl)propane-1,2-diol] | 15.8 nM | 5.01 nM
15 | Cc1nc(N2CC[C@H](C(N)=O)C2)ncc1-n1c2ccc(F)cc2c2[nH]ncc21 [Example 21, (3S)-1-(5-(7-Fluoropyrazolo[4,3-b]indol-4(1H)-yl)-4-methylpyrimidin-2-yl)pyrrolidine-3-carboxamide] | 15.8 nM | 7.94 nM
16 | Cc1nc(N2CCC(F)CC2)ncc1-n1c2ccc(F)cc2c2[nH]ncc21 [Example 57, 7-Fluoro-4-(2-(4-fluoropiperidin-1-yl)-4-methylpyrimidin-5-yl)-1,4-dihydropyrazolo[4,3-b]indole] | 25.1 nM | 12.6 nM
17 | Cc1cc2nn(C)cc2cc1-n1c2ccc(F)cc2c2[nH]ncc21 [Example 15, 4-(2,6-Dimethyl-2H-indazol-5-yl)-7-fluoro-1,4-dihydropyrazolo[4,3-b]indole] | 10 nM | 10 nM
18 | O=C(NCc1ccccc1)n1c2ccc(F)cc2c2[nH]ncc21 [Example 98, N-Benzyl-7-fluoropyrazolo[4,3-b]indole-4(1H)-carboxamide] | 501 nM | 158 nM

Continued by falling IC50 (human MetAP2 enzyme [1]), values first:

Row | IC50 (human MetAP2 enzyme [1]) | IC50 (human MetAP2 enzyme [2]) | Compound
19 | 39.8 nM | 63.1 nM | Cc1nc(N2CC[C@@H](F)C2)ncc1-n1c2ccc(F)cc2c2[nH]ncc21 [Example 36, 7-Fluoro-4-(2-((R)-3-fluoropyrrolidin-1-yl)-4-methylpyrimidin-5-yl)-1,4-dihydropyrazolo[4,3-b]indole]
20 | 39.8 nM | 31.6 nM | Fc1ccc2c(c1)c1[nH]ncc1n2Cc1ccccc1 [Example 1, 4-Benzyl-7-fluoro-1,4-dihydropyrazolo[4,3-b]indole]
21 | 25.1 nM | 10 nM | Cc1nc(C(=O)NCCCO)ccc1-n1c2ccc(F)cc2c2[nH]ncc21 [Example 118, 5-(7-Fluoropyrazolo[4,3-b]indol-4(1H)-yl)-N-(3-hydroxypropyl)-6-methylpicolinamide]
22 | 25.1 nM | 31.6 nM | Cc1nn(C)c(C)c1-n1c2ccc(F)cc2c2[nH]ncc21 [Example 62, 7-Fluoro-4-(1,3,5-trimethyl-1H-pyrazol-4-yl)-1,4-dihydropyrazolo[4,3-b]indole]
23 | 20 nM | 10 nM | CNC(=O)c1ccc(-n2c3ccc(F)cc3c3[nH]ncc32)c(C)n1 [Example 119, 5-(7-Fluoropyrazolo[4,3-b]indol-4(1H)-yl)-N,6-dimethylpicolinamide]
24 | 20 nM | 10 nM | Cc1c(-n2c3ccc(F)cc3c3[nH]ncc32)ccc2ncnn12 [Example 70, 7-Fluoro-4-(5-methyl-[1,2,4]triazolo[1,5-a]pyridin-6-yl)-1,4-dihydropyrazolo[4,3-b]indole]
25 | 20 nM | 12.6 nM | Cc1nc(C(=O)NCCO)ccc1-n1c2ccc(F)cc2c2[nH]ncc21 [Example 96, 5-(7-Fluoropyrazolo[4,3-b]indol-4(1H)-yl)-N-(2-hydroxyethyl)-6-methylpicolinamide]
26 | 15.8 nM | 12.6 nM | Cc1nc(N2CCNCC2)ccc1-n1c2ccc(F)cc2c2[nH]ncc21 [Example 64, 7-Fluoro-4-(2-methyl-6-(piperazin-1-yl)pyridin-3-yl)-1,4-dihydropyrazolo[4,3-b]indole]
27 | 15.8 nM | 15.8 nM | Cc1cc(N(C)CCO)ncc1-n1c2ccc(F)cc2c2[nH]ncc21 [Example 63, 2-((5-(7-Fluoropyrazolo[4,3-b]indol-4(1H)-yl)-4-methylpyridin-2-yl)(methyl)amino)ethanol]
28 | 15.8 nM | 12.6 nM | Cc1nc(N)ncc1-n1c2ccc(F)cc2c2[nH]ncc21 [Example 85, 5-(7-Fluoropyrazolo[4,3-b]indol-4(1H)-yl)-4-methylpyrimidin-2-amine]
29 | 15.8 nM | 25.1 nM | Cc1nc2c(cc1-n1c3ccc(F)cc3c3[nH]ncc31)ncn2C[C@H](O)CO [Example 79, (2S)-3-(6-(7-Fluoropyrazolo[4,3-b]indol-4(1H)-yl)-5-methyl-3H-imidazo[4,5-b]pyridin-3-yl)propane-1,2-diol]
30 | 12.6 nM | 6.31 nM | Cc1nc(N2CC[C@@H](C(N)=O)C2)ncc1-n1c2ccc(F)cc2c2[nH]ncc21 [Example 20, (3R)-1-(5-(7-Fluoropyrazolo[4,3-b]indol-4(1H)-yl)-4-methylpyrimidin-2-yl)pyrrolidine-3-carboxamide]
31 | 10 nM | 7.94 nM | Cc1nc(NC[C@H](C)O)ncc1-n1c2ccc(F)cc2c2[nH]ncc21 [Example 92, (2S)-1-((5-(7-Fluoropyrazolo[4,3-b]indol-4(1H)-yl)-4-methylpyrimidin-2-yl)amino)propan-2-ol]
32 | 10 nM | 6.31 nM | Cc1nc(N2C[C@@H](O)[C@H](O)C2)ncc1-n1c2ccc(F)cc2c2[nH]ncc21 [Example 76, (3R,4R)-1-(5-(7-Fluoropyrazolo[4,3-b]indol-4(1H)-yl)-4-methylpyrimidin-2-yl)pyrrolidine-3,4-diol]
33 | 7.94 nM | 10 nM | Cc1nc2[nH]c(=O)[nH]c2cc1-n1c2ccc(F)cc2c2[nH]ncc21 [Example 87, 6-(7-Fluoropyrazolo[4,3-b]indol-4(1H)-yl)-5-methyl-1H-imidazo[4,5-b]pyridin-2(3H)-one]
34 | 6.31 nM | 12.6 nM | Cc1nc(N[C@@H](C)CO)ncc1-n1c2ccc(F)cc2c2[nH]ncc21 [Example 91, (2S)-2-((5-(7-Fluoropyrazolo[4,3-b]indol-4(1H)-yl)-4-methylpyrimidin-2-yl)amino)propan-1-ol]
35 | 6.31 nM | 7.94 nM | Cc1nc(N2CCC(O)CC2)ncc1-n1c2ccc(F)cc2c2[nH]ncc21 [Example 29, 1-(5-(7-Fluoropyrazolo[4,3-b]indol-4(1H)-yl)-4-methylpyrimidin-2-yl)piperidin-4-ol]
36 | 6.31 nM | 3.98 nM | Cc1nc(N2CCC[C@@H](O)C2)ncc1-n1c2ccc(F)cc2c2[nH]ncc21 [Example 24, (3R)-1-(5-(7-Fluoropyrazolo[4,3-b]indol-4(1H)-yl)-4-methylpyrimidin-2-yl)piperidin-3-ol]
